Measurements from patent US10065928B2, “Quinolinone compound and use thereof” (Sunshine Lake Pharma Co., Ltd., priority 2014, dated 2018).

What follows are compounds tested on erythropoietin (EPO) production in Hep3B cells (assay: Activity in inducing erythropoietin (EPO) production in vitro, Hep3B cells, EPO ELISA). Details: Homo sapiens, 24 h, EPO in supernatant by ELISA.
Assay type: cell-based
Description: The activities of compounds of the invention in inducing erythropoietin (EPO) production were assessed by using human live cancer cell strain Hep3B (ATCC: American type culture collection, Manassas, Va.). Hep3B cells seeded in a 96-well plate with a density of 2.5×10^4 cells/well were cultivated overnight in DMEM culture medium (Dulbecco's Modified Eagle's Medium) at 37° C. in the presence of 10% fetal bovine serum (FBS). The next day, the supernatant liquid of culture medium was abandoned by suction, and to the residue was added fresh DMEM (containing 0.5% DMSO, 0.5% FBS) containing compound of the invention with a series of concentrations (0.31160.00 μM) or containing solvent used for comparison. The cells were cultivated at 37° C. for 24 h. The supernatant liquid was collected and the EPO concentration of the supernatant was quantified by using human EPO ELISA kit (Abcam). The activity of each compound in inducing erythropoietin (EPO) production was represented by half maximal effective concentration (EC50).

| SMILES | EC50 |
| --- | --- |
| Cn1c(=O)c(C(=O)NCC(=O)O)c(O)c2ccc(Oc3ccncc3)cc21 [Example 43, 2-(4-hydroxy-1-methyl-2-oxo-7-(pyridin-4-yloxy)-1,2-dihydroquinoline-3-carboxamido)acetic acid] | 28.9 µM |
| Cn1c(=O)c(C(=O)NCC(=O)O)c(O)c2ccc(Oc3c(F)cccc3Cl)cc21 [Example 23, 2-(7-(2-chloro-6-fluorophenoxy)-4-hydroxy-1-methyl-2-oxo-1,2-dihydroquinoline-3-carboxamido)acetic acid] | 9.23 µM |
| Cn1c(=O)c(C(=O)NCC(=O)O)c(O)c2ccc(Oc3ccc(F)cc3F)cc21 [Example 15, 2-(7-(2,4-difluorophenoxy)-4-hydroxy-1-methyl-2-oxo-1,2-dihydroquinoline-3-carboxamido)acetic acid] | 6.92 µM |
| Cn1c(=O)c(C(=O)NCC(=O)O)c(O)c2ccc(Oc3ccc(F)c(Cl)c3)cc21 [Example 29, 2-(7-(3-chloro-4-fluorophenoxy)-4-hydroxy-1-methyl-2-oxo-1,2-dihydroquinoline-3-carboxamido)acetic acid] | 10.2 µM |
| Cn1c(=O)c(C(=O)NCC(=O)O)c(O)c2ccc(Oc3cccc(F)c3)cc21 [Example 46, 2-(7-(3-fluorophenoxy)-4-hydroxy-1-methyl-2-oxo-1,2-dihydroquinoline-3-carboxamido)acetic acid] | 3.61 µM |
| Cn1c(=O)c(C(=O)NCC(=O)O)c(O)c2ccc(Oc3ccc(F)c(F)c3)cc21 [Example 17, 2-(7-(3,4-difluorophenoxy)-4-hydroxy-1-methyl-2-oxo-1,2-dihydroquinoline-3-carboxamido)acetic acid] | 3.16 µM |
| Cn1c(=O)c(C(=O)NCC(=O)O)c(O)c2cc(S(=O)(=O)n3ccc4ccccc43)ccc21 [Example 7, 2-(6-((1H-indol-1-yl)sulfonyl)-4-hydroxy-1-methyl-2-oxo-1,2-dihydroquinoline-3-carboxamido)acetic acid] | 6.83 µM |
| Cn1c(=O)c(C(=O)NCC(=O)O)c(O)c2ccc(Oc3ccc(Cl)c(Cl)c3)cc21 [Example 33, 2-(7-(3,4-dichlorophenoxy)-4-hydroxy-1-methyl-2-oxo-1,2-dihydroquinoline-3-carboxamido)acetic acid] | 2.56 µM |
| Cn1c(=O)c(C(=O)NCC(=O)O)c(O)c2cc(Oc3ccccc3)ccc21 [Example 5, 2-(4-hydroxy-1-methyl-2-oxo-6-phenoxy-1,2-dihydroquinoline-3-carboxamido)acetic acid] | 4 µM |
| Cn1c(=O)c(C(=O)NCC(=O)O)c(O)c2ccc(Oc3c(Cl)cccc3Cl)cc21 [Example 32, 2-(7-(2,6-dichlorophenoxy)-4-hydroxy-1-methyl-2-oxo-1,2-dihydroquinoline-3-carboxamido)acetic acid] | 3.63 µM |
| Cn1c(=O)c(C(=O)NCC(=O)O)c(O)c2ccc(Oc3cccc(Cl)c3Cl)cc21 [Example 30, 2-(7-(2,3-dichlorophenoxy)-4-hydroxy-1-methyl-2-oxo-1,2-dihydroquinoline-3-carboxamido)acetic acid] | 1.97 µM |
| Cn1c(=O)c(C(=O)NCC(=O)O)c(O)c2ccc(Oc3cccc(F)c3F)cc21 [Example 14, 2-(7-(2,3-difluorophenoxy)-4-hydroxy-1-methyl-2-oxo-1,2-dihydroquinoline-3-carboxamido)acetic acid] | 10.2 µM |
| COc1ccccc1Oc1ccc2c(O)c(C(=O)NCC(=O)O)c(=O)n(C)c2c1 [Example 38, 2-(4-hydroxy-7-(2-methoxyphenoxy)-1-methyl-2-oxo-1,2-dihydroquinoline-3-carboxamido)acetic acid] | 8.85 µM |
| Cn1c(=O)c(C(=O)NCC(=O)O)c(O)c2ccc(Oc3ccc(Cl)cc3Cl)cc21 [Example 31, 2-(7-(2,4-dichlorophenoxy)-4-hydroxy-1-methyl-2-oxo-1,2-dihydroquinoline-3-carboxamido)acetic acid] | 4.15 µM |
| Cn1c(=O)c(C(=O)NCC(=O)O)c(O)c2ccc(Oc3c(F)cccc3F)cc21 [Example 16, 2-(7-(2,6-difluorophenoxy)-4-hydroxy-1-methyl-2-oxo-1,2-dihydroquinoline-3-carboxamido)acetic acid] | 8.83 µM |
| Cn1c(=O)c(C(=O)NCC(=O)O)c(O)c2ccc(Oc3ccc(Cl)cc3F)cc21 [Example 21, 2-(7-(4-chloro-2-fluorophenoxy)-4-hydroxy-1-methyl-2-oxo-1,2-dihydroquinoline-3-carboxamido)acetic acid] | 5.75 µM |
| Cn1c(=O)c(C(=O)NCC(=O)O)c(O)c2ccc(Oc3cc(F)cc(Cl)c3)cc21 [Example 26, 2-(7-(3-chloro-5-fluorophenoxy)-4-hydroxy-1-methyl-2-oxo-1,2-dihydroquinoline-3-carboxamido)acetic acid] | 13.5 µM |

| SMILES | EC50 |
| --- | --- |
| COc1ccc(Oc2ccc3c(O)c(C(=O)NCC(=O)O)c(=O)n(C)c3c2)cc1 [Example 36, 2-(4-hydroxy-7-(4-methoxyphenoxy)-1-methyl-2-oxo-1,2-dihydroquinoline-3-carboxamido)acetic acid] | 2.95 µM |
| Cn1c(=O)c(C(=O)NCC(=O)O)c(O)c2cc(F)c(Oc3ccccc3)cc21 [Example 39, 2-(6-fluoro-4-hydroxy-1-methyl-2-oxo-7-phenoxy-1,2-dihydroquinoline-3-carboxamido)acetic acid] | 4.89 µM |
| O=C(O)CNC(=O)c1c(O)c2ccc(Oc3ccccc3)cc2n(CCC2CC2)c1=O [Example 42, 2-(1-(cyclopropylethyl)-4-hydroxy-2-oxo-7-phenoxy-1,2-dihydroquinoline-3-carboxamido)acetic acid] | 3.34 µM |
| Cn1c(=O)c(C(=O)NCC(=O)O)c(O)c2cc(Oc3ccc4ccccc4c3)ccc21 [Example 9, 2-(4-hydroxy-1-methyl-6-(naphthalen-2-yloxy)-2-oxo-1,2-dihydroquinoline-3-carboxamido)acetic acid] | 2.52 µM |
| Cn1c(=O)c(C(=O)NCC(=O)O)c(O)c2ccc(Oc3cc(F)cc(F)c3)cc21 [Example 18, 2-(7-(3,5-difluorophenoxy)-4-hydroxy-1-methyl-2-oxo-1,2-dihydroquinoline-3-carboxamido)acetic acid] | 6.28 µM |
| Cn1c(=O)c(C(=O)NCC(=O)O)c(O)c2ccc(Oc3ccc(Cl)c(F)c3)cc21 [Example 25, 2-(7-(4-chloro-3-fluorophenoxy)-4-hydroxy-1-methyl-2-oxo-1,2-dihydroquinoline-3-carboxamido)acetic acid] | 10.2 µM |
| Cn1c(=O)c(C(=O)NCC(=O)O)c(O)c2ccc(Oc3cc(Cl)cc(Cl)c3)cc21 [Example 34, 2-(7-(3,5-dichlorophenoxy)-4-hydroxy-1-methyl-2-oxo-1,2-dihydroquinoline-3-carboxamido)acetic acid] | 20.2 µM |
| Cn1c(=O)c(C(=O)NCC(=O)O)c(O)c2ccc(Oc3cccc(Cl)c3)cc21 [Example 12, 2-(7-(3-chlorophenoxy)-4-hydroxy-1-methyl-2-oxo-1,2-dihydroquinoline-3-carboxamido)acetic acid] | 4.24 µM |
| CN(C(=O)c1ccc2c(c1)c(O)c(C(=O)NCC(=O)O)c(=O)n2C)C(c1ccccc1)c1ccccc1 [Example 11, 2-(6-(benzhydryl(methyl)carbamoyl)-4-hydroxy-1-methyl-2-oxo-1,2-dihydroquinoline-3-carboxamido)acetic acid] | 10.2 µM |
| Cn1c(=O)c(C(=O)NCC(=O)O)c(O)c2ccc(Oc3cc(F)ccc3Cl)cc21 [Example 27, 2-(7-(2-chloro-5-fluorophenoxy)-4-hydroxy-1-methyl-2-oxo-1,2-dihydroquinoline-3-carboxamido)acetic acid] | 6.85 µM |
| Cn1c(=O)c(C(=O)NCC(=O)O)c(O)c2ccc(Oc3ccc4ccccc4c3)cc21 [Example 8, 2-(4-hydroxy-1-methyl-7-(naphthalen-2-yloxy)-2-oxo-1,2-dihydroquinoline-3-carboxamido)acetic acid] | 1.63 µM |
| COc1cccc(Oc2ccc3c(O)c(C(=O)NCC(=O)O)c(=O)n(C)c3c2)c1 [Example 37, 2-(4-hydroxy-7-(3-methoxyphenoxy)-1-methyl-2-oxo-1,2-dihydroquinoline-3-carboxamido)acetic acid] | 6.26 µM |
| Cn1c(=O)c(C(=O)NCC(=O)O)c(O)c2ccc(Oc3cc(Cl)ccc3Cl)cc21 [Example 35, 2-(7-(2,5-dichlorophenoxy)-4-hydroxy-1-methyl-2-oxo-1,2-dihydroquinoline-3-carboxamido)acetic acid] | 2.25 µM |
| Cn1c(=O)c(C(=O)NCC(=O)O)c(O)c2ccc(Oc3ccccc3F)cc21 [Example 45, 2-(7-(2-fluorophenoxy)-4-hydroxy-1-methyl-2-oxo-1,2-dihydroquinoline-3-carboxamido)acetic acid] | 6.02 µM |
| Cn1c(=O)c(C(=O)NCC(=O)O)c(O)c2ccc(Oc3cccc(Cl)c3F)cc21 [Example 20, 2-(7-(3-chloro-2-fluorophenoxy)-4-hydroxy-1-methyl-2-oxo-1,2-dihydroquinoline-3-carboxamido)acetic acid] | 3.75 µM |
| Cn1c(=O)c(C(=O)NCC(=O)O)c(O)c2ccc(Oc3ccccc3Cl)cc21 [Example 48, 2-(7-(2-chlorophenoxy)-4-hydroxy-1-methyl-2-oxo-1,2-dihydroquinoline-3-carboxamido)acetic acid] | 6.6 µM |
| Cn1c(=O)c(C(=O)NCC(=O)O)c(O)c2ccc(Oc3ccccc3OC(F)(F)F)cc21 [Example 40, 2-(4-hydroxy-1-methyl-2-oxo-7-(2-(trifluoromethoxy)phenoxy)-1,2-dihydroquinoline-3-carboxamido)acetic acid] | 4.06 µM |
